# “And” between values parts separate entries of the source, which are not always exact repeats. Equal values may be shown once. Read-outs that look alike come from different tables or passages of the source.
# What was measured:
# [1] = system: Staph Russell; experiment: standard microliter MIC test (Demonstrations 3-5); format: cell-based; conditions: for MIC: alone
# [2] = system: Kleb E 70; experiment: standard microliter MIC test (Demonstrations 3-5); format: cell-based, Klebsiella
# [3] = system: Proteus C 889; experiment: standard microliter MIC test (Demonstrations 3-5); format: cell-based; conditions: for MIC (ampicillin + title compound): trailing end point; for MIC: alone
# [4] = system: E. coli JT 39; experiment: standard microliter MIC test (Demonstrations 3-5); format: cell-based; conditions: for MIC: alone
# [5] = system: E. coli JT 410; experiment: standard microliter MIC test (Demonstrations 3-5); format: cell-based
# [6] = system: Escherichia coli JT39; experiment: Amoxycillin with or without synergist, E. coli JT39 intraperitoneal infection of mice, subcutaneous (Demonstration 1a); format: in vivo, Escherichia coli (infected mice); conditions: JT39, sc, antibiotic alone, sub-cutaneous, 1 and 5 hours post infection, read-out: CD50 (the source's name)
# Method: (§1) a. Sub-cutanvenous administration: Groups of mice were infected inter peritoneally with Escherichia coli JT39. At 1 and 5 hours post infection the mice were treated with amoxycillin (Amox.) or with amoxycillin and synergist. The solutions were made up in phosphate buffer.
# [7] = system: Escherichia coli JT39; experiment: Amoxycillin with or without synergist, E. coli JT39 intraperitoneal infection of mice, oral (Demonstration 1b); format: in vivo, Escherichia coli (infected mice); conditions: antibiotic alone, oral, 1, 3 and 5 hours post-infection, read-out: CD50 (the source's name)
# Method: (§2) b. Oral administration: Groups of mice were infected inter peritoneally with Escherichia coli JT39. At 1, 3 and 5 hours post-infection the mice were treated with amoxycillin or with amoxycillin and synergist. The solutions were made up in phosphate buffer.
# [8] = system: Escherichia coli JT 39; experiment: intra peritoneal infection due to Escherichia coli JT 39 in mice, subcutaneous dosing (Demonstration 2b); format: in vivo, Escherichia coli (infected mice); conditions: for ED50: Escherichia coli, JT39, sc, alone, × 2, sub-cutaneous, 1 and 5 hours post infection, read-out: C50
# Method: b. […] Dosing was sub-cutaneous and 1 and 5 hours post infection.
# [9] = system: Staph. aureus Russell; experiment: standard MIC test (Demonstration 1c); format: cell-based; conditions: Staphylococcus aureus
# [10] = system: Escherichia coli JT39; experiment: standard MIC test (Demonstration 1c); format: cell-based
# [11] = system: E. coli JT 39; experiment: conventional microliter method, MIC (Demonstration 2a); format: cell-based; conditions: Escherichia coli, JT39
# Method: (§3) a. The antibacterial and synergistic activity of the title compound (referred to as "Sunergist" in the Table) was determined by a conventional microliter method.
# [12] = system: Proteus C 889; experiment: as above; format: cell-based
# Method: as §3
# [13] = system: Pseudomonas Dalgleish; experiment: microbe, parasite or virus in culture; format: cell-based
# Method: as §3
# [14] = system: Klebsiella E70; experiment: standard MIC test (Demonstration 1c); format: cell-based; conditions: alone
# [15] = Signs of drug toxicity during the in-vivo tests (Demonstration 1); conditions: mice
# Method: as §1, with “buffer. The results were as follows:” for “buffer.”
# as §2
# [16] = system: gram negative bacteria such as Escherichia and Klebsiella and gram positive bacteria such as Staphylococcus; experiment: Summary of the synergy tests with penicillins (Demonstration 1d); conditions: summary of preceding tests
# Method: as §1, with “buffer. The results were as follows:” for “buffer.”
# as §2
# [17] = system: E. coli JT 410; experiment: conventional microliter method, MIC (Demonstration 2a); format: cell-based; conditions: Escherichia coli, JT410; alone
# Method: as §3
# [18] = system: Kleb. E 70; experiment: as above; format: cell-based; conditions: Klebsiella; alone
# Method: as §3
# [19] = system: Staph. Russell; experiment: as above; format: cell-based; conditions: alone
# Method: as §3
# [20] = Average blood levels after oral administration to dogs (Demonstration 6); format: in vivo; conditions: dog, 5 mg/kg
# Method: (§4) Lithium 9-O-(azetidin-2'-on-4'-yl)clavulanate was administered orally to a group of eight dogs, weighing 9-12 kg, at a dosage of 5 mg/kg.
# The level of the compound in the blood was measured after 0.25, 0.5, 1, 2, 4 and 6 hours. The results are shown in Table 1, with those for sodium clavulanate for comparison.
# [21] = Urinary recovery after oral administration to dogs (Demonstration 6); format: in vivo; conditions: for dose excreted at 24 h: dog, urine, po, 5 mg/kg
# Method: as §4
# The urinary recovery of the compound over 24 hours was also measured.
# [22] = Klebsiella, E70, alone, read-out: MIC
# [23] = Escherichia coli, JT39, read-out: MIC
# [24] = Escherichia coli, JT410, alone, read-out: MIC
smiles,measurement,setting,value
NCC(=O)NCCOCC=C1OC2CC(=O)N2C1C(=O)O (centres unmarked) [9-O-[(N-Glycyl)-2-aminoethyl]clavulanic acid],MIC (ampicillin + title compound),[1]; Amp. + 1 μg/ml of title comp.,1.25 µg/mL
same,MIC (ampicillin + title compound),[1]; Amp. + 5 μg/ml of title comp.,0.15 µg/mL
same,MIC,[1],8 µg/mL
same,MIC (ampicillin + title compound),[2]; Amp. + 1 μg/ml of title comp.,6.25 µg/mL
same,MIC (ampicillin + title compound),[2]; Amp. + 5 μg/ml of title comp.,1.5 µg/mL
same,MIC,[2]; alone,62.5 µg/mL
same,MIC (ampicillin + title compound),[3]; Amp. + 1 μg/ml of title comp.,8 µg/mL
same,MIC (ampicillin + title compound),[3]; Amp. + 5 μg/ml of title comp.,2 µg/mL
same,MIC,[3],250 µg/mL
same,MIC (ampicillin + title compound),[4]; Amp. + 1 μg/ml of title comp.,31.2 µg/mL
same,MIC (ampicillin + title compound),[4]; Amp. + 5 μg/ml of title comp.,8 µg/mL
same,MIC,[4],31.2 µg/mL
same,MIC (ampicillin + title compound),[5]; Amp. + 5 μg/ml of title comp.,62.5 µg/mL
same,MIC,[5]; alone,62.5 µg/mL
"CC1(C)S[C@@H]2[C@H](NC(=O)[C@H](N)c3ccc(O)cc3)C(=O)N2[C@H]1C(=O)O [Amoxycillin, amoxycillin]",ED50,[6],> 1000 mg/kg
same,ED50,[7],> 1000 mg/kg
same,ED50,[8],> 1000 mg/kg
"CC1(C)S[C@@H]2[C@H](NC(=O)[C@H](N)c3ccccc3)C(=O)N2[C@H]1C(=O)O [Ampicillin, ampicillin, reference compound]",MIC,[9],62 µg/mL
same,MIC,[10],2000 µg/mL
same,MIC,[11],2000 µg/mL
same,MIC,[12],1000 µg/mL
same,MIC,[13],> 2000 µg/mL
same,MIC,"[2]; Klebsiella, E70",1000 µg/mL
same,MIC,"[2]; Klebsiella, E70, alone",500 µg/mL
same,MIC,[3],2000 µg/mL and > 2000 µg/mL
same,MIC,"[4]; Escherichia coli, JT39",2000 µg/mL
same,MIC,[4],1000 µg/mL
same,MIC,"[5]; Escherichia coli, JT410",250 µg/mL
Cc1nnc(SCC2=C(C(=O)O)N3C(=O)[C@@H](NC(=O)Cn4cnnn4)[C@H]3SC2)s1 [Cefazolin],ED50,[8],13 mg/kg
"O=C1CC(OC/C=C2\O[C@@H]3CC(=O)N3[C@H]2C(=O)O)N1 (some centres unmarked) [Example 2, Sodium 9-O-(azetidin-2'-on-4'-yl)clavulanate]",MIC,"[9]; alone, read-out: MIC",8 µg/mL
same,MIC,[14],31.2 µg/mL
same,MIC,"[10]; alone, read-out: MIC",31.2 µg/mL
same,signs of drug toxicity,[15],No signs of drug toxicity were observed
same,synergism with penicillins such as amoxycillin,[16],effective synergist for penicillins such as amoxycillin
"CC(NC=O)OC/C=C1\O[C@@H]2CC(=O)N2[C@H]1C(=O)O (some centres unmarked) [Example 9, Lithium 9-O-(1-formamidoethyl)clavulanate]",MIC,"[11]; alone, read-out: MIC",62.5 µg/mL
same,MIC,[17],31.2 µg/mL
same,MIC,[18],62.5 µg/mL
same,MIC,"[12]; alone, read-out: MIC",62.5 µg/mL
same,MIC,[19],8 µg/mL
same,MIC,[13],> 500 µg/mL
same,effect on the effectiveness of amoxycillin,"[8]; with amoxycillin, sub-cutaneous",enhance the effectiveness of amoxycillin
"N[C@@H]1C(=O)N[C@H]1OC/C=C1\O[C@@H]2CC(=O)N2[C@H]1C(=O)O [Example 13, 9-O-[(3S,4S)-2'-Oxo-3'-aminoazetidin-4'-yl]clavulanic acid]",MIC,[1]; read-out: MIC,62.5 µg/mL
same,MIC,[2]; [22],62.5 µg/mL
same,MIC,[3]; read-out: MIC,62.5 µg/mL
same,MIC,[4]; [23],62.5 µg/mL
same,MIC,[5]; [24],62.5 µg/mL
"N[C@@H]1C(=O)N[C@@H]1OC/C=C1\O[C@@H]2CC(=O)N2[C@H]1C(=O)O [Example 14, 9-O-[(3S,4R)-2'-Oxo-3'-aminoazetidin-4'-yl]-clavulanic acid]",MIC,[1]; read-out: MIC,62.5 µg/mL
same,MIC,[2]; [22],62.5 µg/mL
same,MIC,[3]; read-out: MIC,62.5 µg/mL
same,MIC,[4]; [23],31.2 µg/mL
same,MIC,[5]; [24],62.5 µg/mL
"O=C1CC(OC/C=C2\O[C@@H]3CC(=O)N3[C@H]2C(=O)O)N1 (some centres unmarked) [Example 27, Lithium 9-O-(2'-oxoazetidin-4'-yl)-clavulanate]",concentration at 0.25 h,[20],1450 ng/mL
same,concentration at 0.5 h,[20],3640 ng/mL
same,concentration at 1 h,[20],4780 ng/mL
same,concentration at 2 h,[20],3790 ng/mL
same,concentration at 4 h,[20],710 ng/mL
same,concentration at 6 h,[20]; 6 hours,< 200 ng/mL
same,Urinary Recovery,"[21]; 0-6 hour, Dog No. 1, 5 mg/kg",10.8 mg
same,Urinary Recovery,"[21]; 0-6 hour, Dog No. 2, 5 mg/kg",14.8 mg
same,Urinary Recovery,"[21]; 0-6 hour, Dog No. 3, 5 mg/kg",13.1 mg
same,Urinary Recovery,"[21]; 0-6 hour, Dog No. 4, 5 mg/kg",29.5 mg
same,Urinary Recovery,"[21]; 0-6 hour, Dog No. 5, 5 mg/kg",18.5 mg
same,Urinary Recovery,"[21]; 0-6 hour, Dog No. 6, 5 mg/kg",9.2 mg
same,Urinary Recovery,"[21]; 0-6 hour, Dog No. 7, 5 mg/kg",9.25 mg
same,Urinary Recovery,"[21]; 0-6 hour, Dog No. 8, 5 mg/kg",12.15 mg
same,Urinary Recovery,"[21]; 0-24 hour, Dog No. 1, 5 mg/kg",11.7 mg
same,Urinary Recovery,"[21]; 0-24 hour, Dog No. 2, 5 mg/kg",17.4 mg
same,Urinary Recovery,"[21]; 0-24 hour, Dog No. 3, 5 mg/kg",18.8 mg
same,Urinary Recovery,"[21]; 0-24 hour, Dog No. 4, 5 mg/kg",29.9 mg
same,Urinary Recovery,"[21]; 0-24 hour, Dog No. 5, 5 mg/kg",19.6 mg
same,Urinary Recovery,"[21]; 0-24 hour, Dog No. 6, 5 mg/kg",10.3 mg
same,Urinary Recovery,"[21]; 0-24 hour, Dog No. 7, 5 mg/kg",11.1 mg
same,Urinary Recovery,"[21]; 0-24 hour, Dog No. 8, 5 mg/kg",12.3 mg
same,dose excreted at 24 h,"[21]; Dog No. 1, read-out: Urinary Recovery, % over 24 hour",20.1%
same,dose excreted at 24 h,"[21]; Dog No. 2, read-out: Urinary Recovery, % over 24 hour",38.6%
same,dose excreted at 24 h,"[21]; Dog No. 3, read-out: Urinary Recovery, % over 24 hour",32.1%
same,dose excreted at 24 h,"[21]; Dog No. 4, read-out: Urinary Recovery, % over 24 hour",52.4%
same,dose excreted at 24 h,"[21]; Dog No. 5, read-out: Urinary Recovery, % over 24 hour",37.3%
same,dose excreted at 24 h,"[21]; Dog No. 6, read-out: Urinary Recovery, % over 24 hour",17.2%
same,dose excreted at 24 h,"[21]; Dog No. 7, read-out: Urinary Recovery, % over 24 hour",19.1%
same,dose excreted at 24 h,"[21]; Dog No. 8, read-out: Urinary Recovery, % over 24 hour",19.5%
"O=C(O)[C@H]1/C(=C/CO)O[C@@H]2CC(=O)N21 [sodium clavulanate, reference compound]",concentration at 0.25 h,[20],960 ng/mL
same,concentration at 0.5 h,[20],3110 ng/mL
same,concentration at 1 h,[20],2910 ng/mL
same,concentration at 2 h,[20],1680 ng/mL
same,concentration at 4 h,[20],280 ng/mL

# — patent US4244965A, “Azetidinoyl ethers” (Beecham Group Limited, priority 1978, dated 1981)
